Measurements from patent US6376511B2, “8-aminoquinolines” (The University of Mississippi, priority 1999, dated 2002).
Like-named read-outs stand apart in the source and are kept apart here.

What was measured:
P. cynomolgi = settings: rhesus monkey, cited from earlier work
L. donovani Chagasi PP75 = experiment: In vitro anti-Leishmania activity, Giemsa counts; type: cell-based; settings: control 6.35
P. carinii = experiment: In vitro antipneumocystis activity; type: cell-based; settings: Pneumocystis carinii, 168 h, read-out: % of control on day 7
[1] = tested on: Plasmodium berghei KBG-173; experiment: Prophylactic test, Plasmodium berghei infection in mice, oral; type: in vivo; settings: for Mice surviving day 60/Mice infected and treated: single dose of 2 mg/kg
Description: CD-I male or female mice, 5 weeks of age, were infected with 5×10^4 parasitized erythrocytes ot Plasmodium berghei KBG-173 mm strain. Blood films were taken on day +6 and weekly thereafter until day+30. […]

L. mexicana amazonensis = experiment: In vitro anti-Leishmania activity, Giemsa counts; type: cell-based; settings: 10 μg/mL; control 15.10 ± 2.18
P. berghei = settings: single dose 72 h after infection, cited from earlier work
Leishmania = experiment: In vitro activity against a variety of strains of Leishmania; type: cell-based
[2] = tested on: trypanosome isolate KETRI 243As103; experiment: Antitrypanosomal activity, trypanosome isolates grown as blood forms in HMI-18; type: cell-based, Trypanosoma; settings: Trypanosoma, 48 h
Method: (§1) Compounds were tested vs. trypanosome isolates grown as blood forms in HMI-18 (Hirumi H., Hirumi, K. 1989. Continuous Cuitivation of Trypanosoma brucei bloodstream forms in a medium containing a low concentration of serum portein without feeder cell layers. J. Parasitol. 75:985-989) containing 20% horse serum.

[3] = tested on: trypanosome isolate KETRI 243; experiment: as above; type: cell-based, Trypanosoma; settings: Trypanosoma, 48 h
Method: as §1

[4] = tested on: trypanosome isolate KETRI 269; experiment: as above; type: cell-based, Trypanosoma; settings: Trypanosoma, 48 h
Method: as §1

[5] = tested on: trypanosome isolate EATRO Lab 110; experiment: as above; type: cell-based, Trypanosoma; settings: Trypanosoma, 48 h
Method: as §1

[6] = tested on: Plasmodium berghei KBG-173; type: in vivo; settings: for Parasitemia Day 6: percentage of red blood cells with parasites, control 31.8
Method: Blood Schizontocidal Test (Trophozoite-Induced Plasmodium berghei Infection in mice University of Miami, Test System: Thompson Test
Drugs were mixed in 0.5% hydroxycellulose 0.1% Tween 80 and administered orally b.i.d. on days 3, 4 and 5 postinfection. CD-1 male or female mice, 5 weeks of age, were infected with 5×10^4 parasitized erythrocytes of Plasmodium berghei KBG-173 mm strain. Blood films were taken on day +6 and weekly thereafter until day +60. Parasitemias were calculated and SD90 value (dose suppressing 90% of the parasites in treated groups compared with the infected non-treated controls) on day +6 postinfection. Mortality data was tabulated for 60 days at which time all mice surviving that were blood film negative were considered cured.
[…] The activity of these compounds were compared with the untreated control and “racemate” which is a mixture of equal amount of each enantiomer X and Y. In untreated controls, death occurs within 8-9 days. Compounds which are effective against Plasmodium berghei infection increase the mean survival time of the infected animals when compared with the untreated controls. Mice that survive after thirty days and are free of parasites in blood are considered cured.
Efficacy of the drug is determined by the number of cures at the end of a 30 day period and the increase in mean survival time over the control (ΔMST). The effect of the test drugs also could be determined by the reduction of the parasitemia (percentage of the red blood cells detected with the parasites) over the untreated control on day 6, one day after the treatment is completed. Both these methods yield virtually identical results. If the dose of test compounds are inadequate, after initial clearance, residual parasites will multiply and relapses will occur within thirty days. The blood schizontocidal activities (suppressive antimalarial) of X, Y, and racemate against P. berghei in mice are shown in Table 11.

Toxoplasma gondii = experiment: In vitro evaluation against Toxoplasma gondii; type: cell-based; settings: preliminary evaluation
Pneumocystis carinii = experiment: Anti-Pneumocystis carinii test (induced Pneumocystis carinii infection in immunosuppressed mice), oral; type: in vivo; settings: mice
[7] = 0.25 mg/kg/day, 0.75 mg/kg total
[8] = oral 1.3 mg/kg/day (x21), mean score on 0 to 5+ scale

## COc1cc(NC(C)CCCN)c2nccc(C)c2c1Oc1ccc(Cl)c(Cl)c1 (racemic) [DN3-27-1, 8-[(4-amino-1-methylbutyl)amino]-5-(3,4-dichlorophenoxy)-6-methoxy-4-methylquinoline]
P. cynomolgi; 0.1 mg/kg/day x7, orally
  Monkeys infected and treated/cured: 0/3
P. cynomolgi; 0.316 mg/kg/day x7, orally
  Monkeys infected and treated/cured: 1/2
P. cynomolgi; 1.0 mg/kg/day x7, orally
  Monkeys infected and treated/cured: 3/3
L. donovani Chagasi PP75; 50 ng/mL
  Giemsa Counts: 0.95 ± 0.27
L. donovani Chagasi PP75; 150 ng/mL
  Giemsa Counts: 0.10 ± 0.03
L. donovani Chagasi PP75; 450 ng/mL
  Giemsa Counts: 0.00 ± 0.00
P. carinii; concentration 0.1 μg/ml
  activity at 0.1 µg/mL: 76.7%
P. carinii; concentration 1.0 μg/ml
  activity at 1 µg/mL: 40.5%
P. carinii; concentration 10 μg/ml
  activity at 10 µg/mL: 3.2%
[1]; day of treatment 1, dose 2 mg/kg
  Mice infected and Mice/treated surviving day 60: 5/5
[1]; day of treatment 1, dose 8 mg/kg
  Mice infected and Mice/treated surviving day 60: 5/5
[1]; day of treatment 1, dose 32 mg/kg
  Mice infected and Mice/treated surviving day 60: 5/5
[1]; day of treatment 1, dose 128 mg/kg
  Mice infected and Mice/treated surviving day 60: 5/5
[1]; day of treatment 2, dose 2 mg/kg
  Mice infected and Mice/treated surviving day 60: 5/5
[1]; day of treatment 2, dose 8 mg/kg
  Mice infected and Mice/treated surviving day 60: 5/5
[1]; day of treatment 2, dose 32 mg/kg
  Mice infected and Mice/treated surviving day 60: 5/5
[1]; day of treatment 2, dose 128 mg/kg
  Mice infected and Mice/treated surviving day 60: 5/5
[1]; day of treatment -1, dose 2 mg/kg
  Mice infected and Mice/treated surviving day 60: 5/5
[1]; day of treatment -1, dose 8 mg/kg
  Mice infected and Mice/treated surviving day 60: 5/5
[1]; day of treatment -1, dose 32 mg/kg
  Mice infected and Mice/treated surviving day 60: 5/5
[1]; day of treatment -1, dose 128 mg/kg
  Mice infected and Mice/treated surviving day 60: 5/5
[1]; day of treatment -2, dose 2 mg/kg
  Mice infected and Mice/treated surviving day 60: 5/5
[1]; day of treatment -2, dose 8 mg/kg
  Mice infected and Mice/treated surviving day 60: 5/5
[1]; day of treatment -2, dose 32 mg/kg
  Mice infected and Mice/treated surviving day 60: 5/5
[1]; day of treatment -2, dose 128 mg/kg
  Mice infected and Mice/treated surviving day 60: 5/5
[1]; day of treatment -3, dose 2 mg/kg
  Mice infected and Mice/treated surviving day 60: 0/5
[1]; day of treatment -3, dose 8 mg/kg
  Mice infected and Mice/treated surviving day 60: 5/5
[1]; day of treatment -3, dose 32 mg/kg
  Mice infected and Mice/treated surviving day 60: 5/5
[1]; day of treatment -3, dose 128 mg/kg
  Mice infected and Mice/treated surviving day 60: 5/5
[1]; single dose of 2 mg/kg within 2 days preinfection through 2 days post infection, mice
  protection from malaria: completely protected from malaria
[1]; day of treatment 2 (Table 5)
  Mice surviving day 60/Mice infected and treated: 2/5
[1]; day of treatment -2 (Table 5)
  Mice surviving day 60/Mice infected and treated: 0/5
[1]; day of treatment -3 (Table 5)
  Mice surviving day 60/Mice infected and treated: 0/5
[1]; day of treatment -4 (Table 5)
  Mice surviving day 60/Mice infected and treated: 0/5
[1]; day of treatment -5 (Table 5)
  Mice surviving day 60/Mice infected and treated: 0/5
L. mexicana amazonensis
  Giemsa Counts: 1.30 ± 0.38
P. berghei; 5 mg/kg subcutaneously
  Mice infected and treated/Mice surviving 60 days: 5/4
P. berghei; 10 mg/kg subcutaneously
  Mice infected and treated/Mice surviving 60 days: 5/5
P. berghei; 20 mg/kg subcutaneously
  Mice infected and treated/Mice surviving 60 days: 5/5
P. berghei; 40 mg/kg subcutaneously
  Mice infected and treated/Mice surviving 60 days: 5/5
P. berghei; 80 mg/kg subcutaneously
  Mice infected and treated/Mice surviving 60 days: 5/5
P. berghei; 160 mg/kg subcutaneously
  Mice infected and treated/Mice surviving 60 days: 5/5
P. berghei; 320 mg/kg subcutaneously
  Mice infected and treated/Mice surviving 60 days: 5/5
P. berghei; 640 mg/kg subcutaneously
  Mice infected and treated/Mice surviving 60 days: 5/5
Leishmania
  in vitro activity against a variety of strains of Leishmania: in vitro activity at very low concentrations
[2]
  IC50: 10.9 µM
[3]
  IC50: 29 µM
[4]
  IC50: 5 µM
[5]
  IC50: 9.4 µM
[6]; [7]
  Mice Alive Day 26: 0/5
  ΔMST (increase in mean survival time over the control): 11.6 days
  Parasitemia Day 6: 4.8
[6]; 1 mg/kg/day, 3 mg/kg total
  Mice Alive Day 26: 0/5
  ΔMST (increase in mean survival time over the control): 10.2 days
  Parasitemia Day 6: 0.1
[6]; highest dose tested (Table I)
  toxicity in mice: no mice showed toxicity at the highest dose tested
[6]; oral dose 1 mg/kg/day (total dose 3 mg/kg), P. berghei in mice
  Mice surviving 60 days/Mice infected and treated: 7/7
[6]; oral dose 4 mg/kg/day (total dose 12 mg/kg), P. berghei in mice
  Mice surviving 60 days/Mice infected and treated: 7/7
[6]; oral dose 16 mg/kg/day (total dose 48 mg/kg), P. berghei in mice
  Mice surviving 60 days/Mice infected and treated: 7/7
[6]; oral dose 64 mg/kg/day (total dose 192 mg/kg), P. berghei in mice
  Mice surviving 60 days/Mice infected and treated: 7/7
[6]; oral, P. berghei in mice
  blood schizonticidal activity, comparison among compounds of Table I: the most active
Toxoplasma gondii
  activity in vitro against Toxoplasma gondii (concentration): around 50 μM
Pneumocystis carinii; oral 0.25 mg/kg/day (x21)
  Giemsa Stain I/T (animals with organism after treatment/animals treated): 2/10
Pneumocystis carinii; oral 1.3 mg/kg/day (x21)
  Giemsa Stain I/T (animals with organism after treatment/animals treated): 0/10
  Silver stain I/T (animals with organism after treatment/animals treated): 0/10
Pneumocystis carinii; [8]
  Giemsa Stain Score: 0.0
  Silver stain Score: 0.0
